Here are results for 11 compounds from patent US20210187046A1, “COCKTAIL COMPOSITIONS COMPRISING RESPIRATORY ANTIBACTERIAL PHAGES AND METHODS OF USE THEREOF” (priority 2019, published 2021).

In brackets after ≈: the same amount, converted by molar mass. Where two headings read alike, the source gives them in different places.

Experiment [1] has as its system P. aeruginosa PSA_1992/05. As to the kind of experiment: Broth microdilution MIC with and without bacteriophage cocktail. In kind it is cell-based, Pseudomonas aeruginosa. How it is done: The method was developed and optimized as a proof of concept for P. aeruginosa using a single strain infected by all three phages (PSA_1992/05; NCIMB deposit 42914)). […] Different time points (4 h, 6 h, 12 h and 18 h) were used for optimization of the technique, but final readings were determined at 18 h. All experiments were conducted in duplicates. The study was optimized for the individual bacteriophages and a final assay is presented here containing data for the complete cocktail.
For orientation: In broth dilution the organism is exposed to a series of concentrations in liquid medium.

For experiment [2], the system named is K. pneumoniae bacterial isolates (n=36). Put plainly: Antibiotic susceptibility testing by disk diffusion. In kind it is cell-based, Klebsiella pneumoniae. The note with it: EUCAST cut-off values. The method, then: A selected group of K. pneumoniae bacterial isolates were collected between 2005 and 2019 (n=36), in at least 7 different health care facilities. Overall, these isolates were collected from hospital settings (n=25), outpatients (n=9), or from unknown origin (n=2), and from a diversity of biological products [urine (n=10), respiratory secretions (n=5), unknown (n=8), abdominal fluids (n=5) and others (n=8)]. This panel was evaluated with regards to antibiotic susceptibility testing by disk diffusion method against a selected panel of clinically important antibiotics (β-lactam antibiotics—ampicillin, ceftazidime, piperacillin with tazobactam, and meropenem; fluoroquinolones—ciprofloxacin; aminoglycosides—gentamicin; and sulphonamides—trimethoprim with sulfamethoxazole). Interpretation of results was performed according to the cut-off values recommended by the European Committee on Antimicrobial Susceptibility Testing (EUCAST, http://mic.eucast.org/Eucast2/). Isolates were considered multidrug resistant (MDR) when presenting non-susceptibility to three or more structurally unrelated classes of antibiotics (Magiorakos A P, Srinivasan A, Carey R B., Carmeli Y, Falagas M E, et al. 2011. Clin Microbiol Infect 2012; 18: 268-281).

Where [3] appears, read: in the presence of bacteriophage cocktail TP-122A at MOI 0.1, 18 h.
Setting [4] is: in the presence of bacteriophage cocktail TP-122A at MOI 1, 18 h.
Setting [5] is: in the presence of bacteriophage cocktail TP-122A at MOI 10, 18 h.
Setting [6] is: Pseudomonas aeruginosa, No Phage, reading at 18 h, read-out: MIC.

Take `CN[C@H](CC(C)C)C(=O)N[C@H]1C(=O)N[C@@H](CC(N)=O)C(=O)N[C@H]2C(=O)N[C@H]3C(=O)N[C@H](C(=O)N[C@H](C(=O)O)c4cc(O)cc(O)c4-c4cc3ccc4O)[C@H](O)c3ccc(c(Cl)c3)Oc3cc2cc(c3O[C@@H]2O[C@H](CO)[C@@H](O)[C@H](O)[C@H]2O[C@H]2C[C@](C)(N)[C@H](O)[C@H](C)O2)Oc2ccc(cc2Cl)[C@H]1O` [VA, vancomycin]: the MIC in experiment [1] (Pseudomonas aeruginosa, 18 h) was above 32 mg/L; in experiment [1] (setting [3]) it was at most 0.016 mg/L; in experiment [1] (setting [4]) it was at most 0.016 mg/L; in experiment [1] (setting [5]), at most 0.016 mg/L.

In the case of `CC(C)(O/N=C(\C(=O)N[C@@H]1C(=O)N2C(C(=O)[O-])=C(C[n+]3ccccc3)CS[C@H]12)c1csc(N)n1)C(=O)O` [C/ZD, ceftazidime], the “MIC” value in experiment [1] (No Phage, reading at 18 h) is recorded as “.5 mg/L”; in experiment [1] (setting [3]), at most 0.016 mg/L; in experiment [1] (setting [4]), at most 0.016 mg/L; in experiment [1] (setting [5]) it was at most 0.016 mg/L. Moreover, the isolates non-susceptible in experiment [2] was determined as 86.1%.

As for `CC(=O)NC[C@H]1CN(c2ccc(N3CCOCC3)c(F)c2)C(=O)O1` [LZD, linezolid], the MIC was above 32 mg/L in experiment [1] (setting [6]), at most 0.016 mg/L in experiment [1] (setting [3]), at most 0.016 mg/L in experiment [1] (setting [4]) and at most 0.016 mg/L in experiment [1] (setting [5]).

Regarding `C[C@@H](O)[C@H]1C(=O)N2C(C(=O)O)=C(S[C@@H]3CN[C@H](C(=O)N(C)C)C3)[C@H](C)[C@H]12` [MEM, meropenem], the MIC was 0.25 mg/L (≈ 0.652 µM) in experiment [1] (setting [6]), at most 0.016 mg/L in experiment [1] (setting [3]), at most 0.016 mg/L in experiment [1] (setting [4]) and at most 0.016 mg/L in experiment [1] (setting [5]). Besides, in experiment [2], the isolates non-susceptible was 77.8%.

For the compound gentamicin, the isolates non-susceptible in experiment [2] came out at 72.2%.

Turning to `NCC[C@H](O)C(=O)N[C@@H]1C[C@H](N)[C@@H](O[C@H]2O[C@H](CN)[C@@H](O)[C@H](O)[C@H]2O)[C@H](O)[C@H]1O[C@H]1O[C@H](CO)[C@@H](O)[C@H](N)[C@H]1O` [AK, amikacin], the MIC in experiment [1] (setting [6]) was 0.5 mg/L (≈ 0.854 µM); in experiment [1] (setting [3]) it was at most 0.016 mg/L; in experiment [1] (setting [4]), at most 0.016 mg/L; in experiment [1] (setting [5]), at most 0.016 mg/L.

As to `O=C(O)c1cn(C2CC2)c2cc(N3CCNCC3)c(F)cc2c1=O` [ciprofloxacin], the isolates non-susceptible in experiment [2] is 91.7%.

The compound `CC1(C)S[C@@H]2[C@H](NC(=O)[C@H](N)c3ccccc3)C(=O)N2[C@H]1C(=O)O` [ampicillin] had an isolates non-susceptible in experiment [2] of 100%.

Turning to colistin [CS], the “MIC” value in experiment [1] (No Phage, reading at 18 h) was 0.25 mg/L; in experiment [1] (setting [3]), at most 0.016 mg/L; in experiment [1] (setting [4]), at most 0.016 mg/L; in experiment [1] (setting [5]), at most 0.016 mg/L.

Take piperacillin with tazobactam [TZP]: the “MIC” value in experiment [1] (No Phage, reading at 18 h) is reported as 1 mg/L; in experiment [1] (setting [3]), at most 0.016 mg/L; in experiment [1] (setting [4]), at most 0.016 mg/L; in experiment [1] (setting [5]), at most 0.016 mg/L. In experiment [2], this compound returned an isolates non-susceptible of 97.2%.

In experiment [2], trimethoprim with sulfamethoxazole showed an isolates non-susceptible of 88.9%.
